Laboratory results as given in patent publication US5628979A, “Reagent for tumor imaging and therapy” (Antisoma Limited, priority 1991, dated 1997).
Read-outs that look alike come from different tables or passages of the source. Where no end group is shown, it is not given here.

Tests used:
[1] = test system: VLA-4; conditions: in words; expressed in vitro by tumour cells and resting CD4+ T-cells; see Shimizu et al; cited from earlier work
[2] = test system: tumor associated LDV binding sites; assay: Binding to tumor associated LDV binding sites / tumor cells in vivo; transportation and clearance; set-up: species or system nude mice; conditions: in words
Procedure: (§1) In vivo experiments were performed in nude mice bearing HEp-2 and HT29 tumors obtained by injecting the nude mice subcutaneously in both flanks with from 2 to 5×10^6 HEp-2 and HT29 tumor cells and the tumors allowed to grow for three weeks.
(§2) In these experiments the nude tumor bearing mice divided into five groups were each injected subcutaneously with the ^125 I-labelled peptide
(§3) ^125 I-YGGLDVGLDVGGY (SEQ ID NO. 2).
(§4) (SEQ ID No. 2), and the uptake of labelled peptide measured against time. For this purpose the five groups were killed at intervals of 5 minutes, 30 minutes, 1 hour, 3 hours, and 6 hours after injection. At this time the blood and tumors were separately removed, weighed and counted for radioactivity, as well as samples taken from all major organs. […] At this point peptide uptake was 10.3% id per gram in blood, 4.5% id per gram in HEp-2 tumor and 3.0% id per gram in HT29 tumor.

[3] = test system: activated platelets; conditions: Kloczewiak et al, cited from earlier work
[4] = test system: HT29 tumor; assay: In vivo uptake of 125I-labelled peptide in HT29 tumor borne by nude mice (Experiment 2); conditions: 5 minutes after subcutaneous injection
Procedure: as §1, §2, §3, §4

[5] = test system: HEp-2 tumor; assay: In vivo uptake of 125I-labelled peptide in HEp-2 tumor borne by nude mice (Experiment 2); conditions: 5 minutes after subcutaneous injection
Procedure: as §1, §2, §3, §4

[6] = In vivo uptake of 125I-labelled peptide in blood of tumor-bearing nude mice (Experiment 2); conditions: 5 minutes after subcutaneous injection; nude mice bearing HEp-2 and HT29 tumors
Procedure: as §1, §2, §3, §4

In the case of “CS1 sequence of fibronectin: 25-unit oligopeptide having the sequence SEQ ID No. 1 (DELPQLVTLPHPLLHGPEILDVPST)”, the “binding to VLA-4” value [1] is listed as “known to bind to the cell adhesion molecule (CAM) VLA-4” and the “binding to tumor cells in vivo” value [2] is listed as “bind strongly to tumor cells in vivo”.
In the case of “HHLQLLKQLLDV [synthetic dodecapeptide, analogue of the γ400-411 residue, containing the LDV triplet (Kloczewiak et al)]”, the IC50 ([3]; Biochemistry 1989, read-out: concentration for 50% inhibition of fibrinogen binding to activated platelets) is listed as > 500 µM and the IC50 ([3]; as restated, read-out: concentration necessary to obtain 50% inhibition of fibronectin binding to activated platelets) is listed as > 500 µM.
In the case of “^125 I-YGGLDVGLDVGGY: radio-labelled thirteen unit peptide YGGLDVGLDVGGY labelled with 125I (also: 125I radiolabel, position not given here)”, the “peptide uptake in HT29 tumor” value [4] is reported as 3.0 % id per gram, the “peptide uptake in HEp-2 tumor” value [5] is reported as 4.5 % id per gram and the “peptide uptake in blood” value [6] is reported as 10.3 % id per gram.
